Experiments:
[1] = tested on: adjuvant induced arthritis (Freund's adjuvant) in rats; experiment: Adjuvant induced arthritis in rats (oral, once daily days 0 through 13 post challenge); type: in vivo, Royal Hart, Wistar strain rats
Protocol: Groups of three Royal Hart, Wistar strain rats weighing 200±10 grams each were injected intradermally in the right hind paw with Freund's adjuvant (dried human tubercle bacilli in a mineral oil vehicle) at a dose of 2 mg./kg. of body weight. Test compounds were administered orally in a 1.5% starch vehicle at various doses once daily on days 0 through 13 post challenge. Control rats were treated in a similar manner, but given only starch vehicle. On the 14th and 21st day post challenge the diameter of the injected paw (primary lesion) was measured by micrometer caliper. The volume of inflamed paws were estimated from these measurements and the results are expressed as percent inhibition of swelling as compared to controls. At the same time, the other inflamed sites, such as ears, paws and tail (secondary lesions) were observed and each rat was graded as to degree of inflammation and swelling present. The grading is based on a scale of 0 to 24, where 0 represents a complete absence of induced arthritic nodules and 24 represents the maximum degree of inflammation. The mean grade for each treated group is calculated and the effects of each compound are expressed as percent inhibition of the control grade. Table I below records the results of tests conducted with the compounds of this invention and known anti-inflammatory agents. The compounds of this invention appear to suppress the progression of the arthritis and associated joint deterioration.

[2] = tested on: adjuvant induced experimental polyarthritis; settings: result in words; literature; cited from earlier work

SMILES: N#CC=C(N)c1ccsc1 [β-Amino-3-thiopheneacrylonitrile, β-amino-3-thiopheneacrylonitrile]
- Dead/Treated at 21 Days ([1]; oral 50 mg./kg. of body weight): 2/18
- Inhibition of Swelling (primary lesion) ([1]; oral 50 mg./kg., Day 14): 52%
- Mean Weight Gain ([1]; oral 50 mg./kg., Day 14): 47 grams
- Inhibition of Swelling (primary lesion) ([1]; oral 50 mg./kg., Day 21): 41%
- Mean Weight Gain ([1]; oral 50 mg./kg., Day 21): 54 grams

SMILES: N#CC=C(N)c1cccs1 [β-Amino-2-thiopheneacrylonitrile, β-amino-2-thiopheneacrylonitrile]
- Dead/Treated at 21 Days ([1]; oral 50 mg./kg. of body weight): 1/33
- % Inhibition of Control Grade (secondary lesion) ([1]; oral 50 mg./kg., Day 14): 21%
- Inhibition of Swelling (primary lesion) ([1]; oral 50 mg./kg., Day 14): 44%
- Mean Weight Gain ([1]; oral 50 mg./kg., Day 14): 54 grams
- % Inhibition of Control Grade (secondary lesion) ([1]; oral 50 mg./kg., Day 21): 6%
- Inhibition of Swelling (primary lesion) ([1]; oral 50 mg./kg., Day 21): 23%
- Mean Weight Gain ([1]; oral 50 mg./kg., Day 21): 50 grams
- Dead/Treated at 21 Days ([1]; oral 100 mg./kg. of body weight): 2/18
- % Inhibition of Control Grade (secondary lesion) ([1]; oral 100 mg./kg., Day 14): 25%
- Inhibition of Swelling (primary lesion) ([1]; oral 100 mg./kg., Day 14): 49%
- Mean Weight Gain ([1]; oral 100 mg./kg., Day 14): 45 grams
- % Inhibition of Control Grade (secondary lesion) ([1]; oral 100 mg./kg., Day 21): 16%
- Inhibition of Swelling (primary lesion) ([1]; oral 100 mg./kg., Day 21): 27%
- Mean Weight Gain ([1]; oral 100 mg./kg., Day 21): 51 grams
- Dead/Treated at 21 Days ([1]; oral 200 mg./kg. of body weight): 6/18
- % Inhibition of Control Grade (secondary lesion) ([1]; oral 200 mg./kg., Day 14): 80%
- Inhibition of Swelling (primary lesion) ([1]; oral 200 mg./kg., Day 14): 70%
- Mean Weight Gain ([1]; oral 200 mg./kg., Day 14): 36 grams
- % Inhibition of Control Grade (secondary lesion) ([1]; oral 200 mg./kg., Day 21): 57%
- Inhibition of Swelling (primary lesion) ([1]; oral 200 mg./kg., Day 21): 61%
- Mean Weight Gain ([1]; oral 200 mg./kg., Day 21): 53 grams

SMILES: N#CCC(=O)c1ccsc1 [β-Oxo-3-thiophenepropionitrile, β-oxo-3-thiophenepropionitrile]
- Dead/Treated at 21 Days ([1]; oral 50 mg./kg. of body weight): 1/18
- Inhibition of Swelling (primary lesion) ([1]; oral 50 mg./kg., Day 14): 61%
- Mean Weight Gain ([1]; oral 50 mg./kg., Day 14): 53 grams
- Inhibition of Swelling (primary lesion) ([1]; oral 50 mg./kg., Day 21): 26%
- Mean Weight Gain ([1]; oral 50 mg./kg., Day 21): 50 grams

SMILES: CC(=O)Oc1ccccc1C(=O)O [Aspirin, reference compound]
- Inhibition of Swelling (primary lesion) ([1]; oral 50 mg./kg., Day 14): 23%
- Inhibition of Swelling (primary lesion) ([1]; oral 50 mg./kg., Day 21): 3%
- Inhibition of Swelling (primary lesion) ([1]; oral 100 mg./kg., Day 14): 36%
- Inhibition of Swelling (primary lesion) ([1]; oral 100 mg./kg., Day 21): 13%
- Inhibition of Swelling (primary lesion) ([1]; oral 200 mg./kg., Day 14): 48%
- Inhibition of Swelling (primary lesion) ([1]; oral 200 mg./kg., Day 21): 27%
- Inhibition of Swelling (primary lesion) ([1]; oral 400 mg./kg., Day 14): 73%
- Inhibition of Swelling (primary lesion) ([1]; oral 400 mg./kg., Day 21): 48%

SMILES: COc1ccc2c(c1)c(CC(=O)O)c(C)n2C(=O)c1ccc(Cl)cc1 [Indomethocin, reference compound]
- arthritic paw swelling; joint and bone deterioration [2]: prevent joint and bone deterioration
- Inhibition of Swelling (primary lesion) ([1]; oral 0.25 mg./kg., Day 14): 30%
- Inhibition of Swelling (primary lesion) ([1]; oral 0.25 mg./kg., Day 21): 4%
- Inhibition of Swelling (primary lesion) ([1]; oral 0.5 mg./kg., Day 14): 40%
- Inhibition of Swelling (primary lesion) ([1]; oral 0.5 mg./kg., Day 21): 20%
- Inhibition of Swelling (primary lesion) ([1]; oral 1 mg./kg., Day 14): 46%
- Inhibition of Swelling (primary lesion) ([1]; oral 1 mg./kg., Day 21): 19%
- Inhibition of Swelling (primary lesion) ([1]; oral 2 mg./kg., Day 14): 51%
- Inhibition of Swelling (primary lesion) ([1]; oral 2 mg./kg., Day 21): 24%

SMILES: CCCCC1C(=O)N(c2ccccc2)N(c2ccccc2)C1=O [Phenylbutazone, reference compound]
- Inhibition of Swelling (primary lesion) ([1]; oral 18.8 mg./kg., Day 14): 31%
- Inhibition of Swelling (primary lesion) ([1]; oral 18.8 mg./kg., Day 21): 7%
- Inhibition of Swelling (primary lesion) ([1]; oral 37.5 mg./kg., Day 14): 56%
- Inhibition of Swelling (primary lesion) ([1]; oral 37.5 mg./kg., Day 21): 14%
- Inhibition of Swelling (primary lesion) ([1]; oral 75 mg./kg., Day 14): 62%
- Inhibition of Swelling (primary lesion) ([1]; oral 75 mg./kg., Day 21): 28%
- Inhibition of Swelling (primary lesion) ([1]; oral 150 mg./kg., Day 14): 75%
- Inhibition of Swelling (primary lesion) ([1]; oral 150 mg./kg., Day 21): 44%

— patent US4241077A, “β-Oxo-3-thiophenepropionitrile and β-amino-2-(3)-thiopheneacrylonitriles” (American Cyanamid Company, priority 1979, dated 1980)
